Laboratory results reported in patent publication US20230040909A1 (priority 2019, published 2023).
≈ marks a conversion by molar mass, not a printed value. Where two headings read alike, the source gives them in different places.

Columns and labels:
hKCNQ1/MinK = hKCNQ1/MinK (Homo sapiens, UniProt P51787); assay: biochemical; type: biochemical
hNav1.5 Peak = hNav1.5 Peak (Homo sapiens, UniProt Q14524); assay: In vitro assessment of ion channels: hNav1.5 Peak; type: biochemical
hNav1.5 Late = hNav1.5 Late (Homo sapiens, UniProt Q14524); assay: In vitro assessment of ion channels: hNav1.5 Late; type: biochemical
Sequence of hNav1.5 Late (Q14524 whole entry): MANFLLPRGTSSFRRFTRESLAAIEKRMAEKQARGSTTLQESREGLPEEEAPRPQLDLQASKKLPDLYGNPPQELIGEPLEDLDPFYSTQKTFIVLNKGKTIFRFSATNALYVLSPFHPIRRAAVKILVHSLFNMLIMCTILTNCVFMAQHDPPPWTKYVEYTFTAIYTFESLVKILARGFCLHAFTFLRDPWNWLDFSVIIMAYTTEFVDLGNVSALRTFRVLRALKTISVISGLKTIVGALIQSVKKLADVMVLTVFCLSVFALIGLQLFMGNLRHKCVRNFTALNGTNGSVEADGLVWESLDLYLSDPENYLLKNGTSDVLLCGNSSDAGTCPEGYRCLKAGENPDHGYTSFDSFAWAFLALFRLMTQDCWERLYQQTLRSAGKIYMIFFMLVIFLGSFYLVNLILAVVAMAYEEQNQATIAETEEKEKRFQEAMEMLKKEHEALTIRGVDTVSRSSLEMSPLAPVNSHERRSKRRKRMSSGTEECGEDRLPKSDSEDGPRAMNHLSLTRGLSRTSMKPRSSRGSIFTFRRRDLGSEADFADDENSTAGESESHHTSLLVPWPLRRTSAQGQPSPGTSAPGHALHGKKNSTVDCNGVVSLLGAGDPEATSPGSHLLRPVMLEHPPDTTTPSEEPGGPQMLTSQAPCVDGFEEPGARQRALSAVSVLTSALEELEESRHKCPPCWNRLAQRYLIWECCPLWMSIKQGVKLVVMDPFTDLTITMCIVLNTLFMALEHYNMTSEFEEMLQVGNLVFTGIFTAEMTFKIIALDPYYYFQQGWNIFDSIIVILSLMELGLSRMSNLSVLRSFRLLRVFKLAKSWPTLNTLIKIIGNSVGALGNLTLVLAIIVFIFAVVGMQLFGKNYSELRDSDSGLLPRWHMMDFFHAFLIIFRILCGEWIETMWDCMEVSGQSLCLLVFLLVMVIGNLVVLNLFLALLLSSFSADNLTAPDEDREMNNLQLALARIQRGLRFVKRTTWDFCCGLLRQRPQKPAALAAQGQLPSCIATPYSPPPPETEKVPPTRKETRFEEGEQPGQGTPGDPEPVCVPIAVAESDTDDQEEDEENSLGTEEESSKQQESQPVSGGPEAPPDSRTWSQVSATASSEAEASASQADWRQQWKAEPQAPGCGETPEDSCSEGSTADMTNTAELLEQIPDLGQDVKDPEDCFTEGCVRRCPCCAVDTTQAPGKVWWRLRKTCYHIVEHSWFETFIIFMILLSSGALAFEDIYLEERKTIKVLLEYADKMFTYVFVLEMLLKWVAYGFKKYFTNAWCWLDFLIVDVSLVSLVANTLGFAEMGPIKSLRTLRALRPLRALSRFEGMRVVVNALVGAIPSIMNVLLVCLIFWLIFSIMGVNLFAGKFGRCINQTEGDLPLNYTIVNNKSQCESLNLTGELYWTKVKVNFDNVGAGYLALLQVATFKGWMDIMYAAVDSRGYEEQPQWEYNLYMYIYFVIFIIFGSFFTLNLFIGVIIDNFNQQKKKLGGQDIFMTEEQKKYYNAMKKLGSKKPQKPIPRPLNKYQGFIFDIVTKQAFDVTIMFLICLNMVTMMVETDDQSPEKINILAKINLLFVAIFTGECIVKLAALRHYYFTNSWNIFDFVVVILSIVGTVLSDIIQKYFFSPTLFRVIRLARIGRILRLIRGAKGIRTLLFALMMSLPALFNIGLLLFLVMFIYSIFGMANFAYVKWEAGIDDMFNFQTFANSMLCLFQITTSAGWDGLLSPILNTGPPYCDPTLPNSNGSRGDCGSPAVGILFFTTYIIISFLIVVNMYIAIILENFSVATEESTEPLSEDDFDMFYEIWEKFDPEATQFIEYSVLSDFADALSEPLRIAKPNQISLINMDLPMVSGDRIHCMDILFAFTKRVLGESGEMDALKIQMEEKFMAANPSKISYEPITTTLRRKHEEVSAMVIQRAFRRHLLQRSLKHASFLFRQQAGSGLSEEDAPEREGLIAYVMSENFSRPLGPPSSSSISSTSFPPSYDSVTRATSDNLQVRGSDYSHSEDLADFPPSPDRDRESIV

hCav1.2 = hCav1.2 (Homo sapiens, UniProt Q13936); assay: biochemical
M. tb H37Rv [1] = type: cell-based, Mycobacterium tuberculosis
M. tb H37Rv [2] = assay: microbe, parasite or virus in culture; type: cell-based, Mycobacterium tuberculosis; details: for MIC: Mycobacterium tuberculosis, H37RV, read-out: M. tb H37Rv: MIC-MABA
VERO cell cytotoxicity = type: cell-based; details: African green monkey, VERO cells
From the text: (§1) The procedures described in Falzari 2005 were used to generate the data shown in column 2 of Table 4.

M. tb H37Rv [3] = assay: microbe, parasite or virus in culture; type: cell-based; details: Mycobacterium tuberculosis; for MIC: read-out: M. tb H37Rv: MIC-LORA
Mycobacterium abscessus = assay: M. ab_ATCC MIC MHII; type: cell-based
From the text: The procedure described in Franz 2017 was used to generate the data shown in column 5 of Table 4.

hERG = hERG (Homo sapiens, UniProt Q12809); assay: biochemical
[4] = QTc (QTcV) prolongation in dogs after oral dosing, with plasma level at 1 hr; details: for concentration at 1 h: dog, plasma, po; for corrected QT (QTc) prolongation in dogs / Max. QTcv / C1 hr / QTcV @ 1 hr: dogs; for Max. QTcv / C1 hr / QTcV @ 1 hr: PO; for C1 hr / QTcV @ 1 hr: 1 hr
VERO Cell = assay: VERO cell cytotoxicity; type: cell-based
From the text: as §1

[5] = Table 3, read-out: hNav1.5 Late IC50
[6] = Mycobacteroides abscessus; read-out: M. ab_ATCC: MIC MHII: MIC

Sequence of hNav1.5 Peak (Q14524 whole entry): as above

C[Si]1(C)CCC(NC(=O)c2cc3c(Cl)cc(Cl)cc3[nH]2)CC1 [MPL-203, 4,6-dichloro-N-(1,1-dimethylsilinan-4-yl)-1H-Indole-2-carboxamide]
hKCNQ1 channel inhibition (hKCNQ1/MinK): do not inhibit the hKCNQ1 channel | IC50 (hKCNQ1/MinK; Table 3): 2.71 µM | IC50 (hNav1.5 Peak; Table 3): > 10 µM | IC50 (hNav1.5 Late; [5]): > 10 µM | IC50 (hCav1.2; Table 3): > 10 µM | MIC (M. tb H37Rv [1]): 0.003 µg/mL (≈ 0.00844 µM) | MIC (M. tb H37Rv [2]): 0.0033 µg/mL (≈ 0.00929 µM) | IC50 (VERO cell cytotoxicity): > 32 µg/mL | MIC (M. tb H37Rv [3]): > 32 µg/mL | MIC (Mycobacterium abscessus; [6]): > 64 µg/mL | IC50 (hERG; hERG IC50, Table 3): > 10 µM

Cc1c(C(=O)NC2CC[Si](C)(C)CC2)[nH]c2cc(Cl)cc(Cl)c12 [MPL-334, 4,6-dichloro-N-(1,1-dimethylsilinan-4-yl)-3-methyl-1H-indole-2-carboxamide]
MIC (M. tb H37Rv [2]): < 0.004 µg/mL | IC50 (VERO cell cytotoxicity): > 20 µg/mL | MIC (M. tb H37Rv [3]): > 20 µg/mL | MIC (Mycobacterium abscessus; [6]): > 64 µg/mL

Cc1cc(C(F)(F)F)c2cc(C(=O)NC3CC[Si](C)(C)CC3)[nH]c2c1 [MPL-385, N-(1,1-dimethylsilinan-4-yl)-6-methyl-4-(trifluoromethyl)-1H-indole-2-carboxamide]
MIC (M. tb H37Rv [2]): < 0.004 µg/mL | IC50 (VERO cell cytotoxicity): > 20 µg/mL | MIC (M. tb H37Rv [3]): 12.7 µg/mL (≈ 34.5 µM) | MIC (Mycobacterium abscessus; [6]): 64 µg/mL (≈ 174 µM)

C[Si]1(C)CCC(NC(=O)c2cc3c(C(F)(F)F)cc(C(F)(F)F)cc3[nH]2)CC1 [MPL-336, N-(1,1-dimethylsilinan-4-yl)-4,6-bis(trifluoromethyl)-1H-indole-2-carboxamide]
MIC (M. tb H37Rv [2]): 0.0306 µg/mL (≈ 0.0724 µM) | IC50 (VERO cell cytotoxicity): > 20 µg/mL | MIC (M. tb H37Rv [3]): > 20 µg/mL | MIC (Mycobacterium abscessus; Mycobacteroides abscessus, read-out: M. ab_ATCC: MIC MHII: MIC): > 64 µg/mL

Cc1cc(C(F)(F)F)c2cc(C(=O)NC3CCC[Si](C)(C)CCC3)[nH]c2c1 [MPL-386, N-(1,1-dimethylsilocan-5-yl)-6-methyl-4-(trifluoromethyl)-1H-indole-2-carboxamide]
MIC (M. tb H37Rv [2]): < 0.004 µg/mL | IC50 (VERO cell cytotoxicity): > 20 µg/mL | MIC (M. tb H37Rv [3]): > 20 µg/mL | MIC (Mycobacterium abscessus; [6]): > 64 µg/mL

CC1(C)CCC(NC(=O)c2cc3c(Cl)cc(Cl)cc3[nH]2)CC1 [NITD-304]
IC50 (hKCNQ1/MinK): 0.71 µM | IC50 (hNav1.5 Peak): > 10 µM | IC50 (hNav1.5 Late; read-out: hNav1.05 Late IC50): 6.4 µM | IC50 (hCav1.2; Table 2): 2.01 µM | IC50 (hCav1.2; Table 3): 2.01 µM | IC50 (hERG; hERG IC50, Table 2): > 10 µM | IC50 (hERG; hERG IC50, Table 3): > 10 µM | IC50 (hERG; hERG IC50, stated in text): > 50 µM | concentration at 1 h ([4]; 150 mg/kg): 300 ng/mL | corrected QT (QTc) prolongation in dogs [4]: dramatic corrected QT (QTc) prolongation | Max. QTcv ([4]; 50 mg/kg): 49 ms | C1 hr ([4]; 50 mg/kg): 250 ng/mL | QTcV @ 1 hr ([4]; 50 mg/kg): -0.6 ms | Max. QTcv ([4]; 150 mg/kg): 120 ms | QTcV @ 1 hr ([4]; 150 mg/kg): 0.3 ms

C[C@@H]1C(NC(=O)c2cc3c(F)cc(F)cc3[nH]2)CC2C[C@@H]1C2(C)C (stereo partly shown) [JS-2-02]
IC50 (hKCNQ1/MinK; Table 2): 6.2 µM | IC50 (hNav1.5 Peak; Table 2): 5.17 µM | IC50 (hNav1.5 Late; Table 2, read-out: hNav1.05 Late IC50): > 10 µM | IC50 (hCav1.2; Table 2): > 10 µM | IC50 (hERG; hERG IC50, Table 2): > 10 µM | concentration at 1 h ([4]; 50 mg/kg): 1200 ng/mL | Max. QTcv ([4]; 50 mg/kg): 6.8 ms | QTcV @ 1 hr ([4]; 50 mg/kg): 1.2 ms | Max. QTcv ([4]; 150 mg/kg): 37 ms | C1 hr ([4]; 150 mg/kg): 1100 ng/mL | QTcV @ 1 hr ([4]; 150 mg/kg): 2.8 ms

C[Si]1(C)CCC(NC(=O)c2cc3c(F)cc(F)cc3[nH]2)CC1 [MPL-204, N-(1,1-dimethylsilinan-4-yl)-4,6-difluoro-1H-indole-2-carboxamide]
hKCNQ1 channel inhibition (hKCNQ1/MinK): do not inhibit the hKCNQ1 channel | IC50 (hKCNQ1/MinK; Table 3): 7.56 µM | IC50 (hNav1.5 Peak; Table 3): > 10 µM | IC50 (hNav1.5 Late; [5]): > 10 µM | IC50 (hCav1.2; Table 3): > 10 µM | MIC (M. tb H37Rv [1]): 0.003 µg/mL (≈ 0.0093 µM) | MIC (M. tb H37Rv [2]): 0.0035 µg/mL (≈ 0.0109 µM) | IC50 (VERO cell cytotoxicity): > 32 µg/mL | MIC (M. tb H37Rv [3]): > 32 µg/mL | MIC (Mycobacterium abscessus; [6]): > 64 µg/mL | IC50 (hERG; hERG IC50, Table 3): > 10 µM

Cc1cc(C#N)cc2[nH]c(C(=O)NC3CC[Si](C)(C)CC3)cc12 [MPL-340, 6-cyano-N-(1,1-dimethylsilinan-4-yl)-4-methyl-1H-indole-2-carboxamide]
MIC (M. tb H37Rv [2]): < 0.004 µg/mL | IC50 (VERO cell cytotoxicity): > 20 µg/mL | MIC (M. tb H37Rv [3]): > 20 µg/mL | MIC (Mycobacterium abscessus; [6]): > 64 µg/mL

CC1(C)CCC(NC(=O)c2cc3c(F)cc(F)cc3[nH]2)CC1 [NITD-349]
IC50 (hKCNQ1/MinK): 0.058 µM | IC50 (hNav1.5 Peak): > 10 µM | IC50 (hNav1.5 Late; read-out: hNav1.05 Late IC50): > 10 µM | IC50 (hNav1.5 Late; read-out: hNav1.5 Late IC50): > 10 µM | IC50 (hCav1.2; Table 2): 9.53 µM | IC50 (hCav1.2; Table 3): 9.5 µM | IC50 (hERG; hERG IC50, Table 2): > 10 µM | IC50 (hERG; hERG IC50, Table 3): > 10 µM | IC50 (hERG; hERG IC50, stated in text): > 50 µM | corrected QT (QTc) prolongation in dogs [4]: dramatic corrected QT (QTc) prolongation | Max. QTcv ([4]; 50 mg/kg): 170 ms | C1 hr ([4]; 50 mg/kg): 790 ng/mL | QTcV @ 1 hr ([4]; 50 mg/kg): 11 ms | Max. QTcv ([4]; 150 mg/kg): 170 ms | QTcV @ 1 hr ([4]; 150 mg/kg): 13.6 ms

Cc1cc(C)c2cc(C(=O)NC3CC[Si](C)(C)C3)[nH]c2c1 (single isomer, unassigned) [MPL-296B]
M. tb H37Rv: MIC-MABA (M. tb H37Rv [2]): 0.052- μg/mL | VERO Cell: Cytotoxicity-IC50 (VERO Cell): >64 µg/mL | M. ab_ATCC: MIC MHII: MIC (Mycobacterium abscessus): 0.5 µg/mL

Cc1cc(C)c2cc(C(=O)NC3CC[Si](C)(C)C3)[nH]c2c1 (single isomer, unassigned) [MPL-296A]
M. tb H37Rv: MIC-MABA (M. tb H37Rv [2]): 0.0007- μg/mL | VERO Cell: Cytotoxicity-IC50 (VERO Cell): >64 µg/mL | M. ab_ATCC: MIC MHII: MIC (Mycobacterium abscessus): <0.063 µg/mL

Cc1cc(C)c2cc(C(=O)NC3CC[Si]4(CCCC4)CC3)[nH]c2c1 [MPL-264, 4,6-dimethyl-N-(5-silaspiro[4.5]decan-8-yl)-1H-indole-2-carboxamide]
MIC (M. tb H37Rv [2]): 0.011 µg/mL (≈ 0.0323 µM) | IC50 (VERO cell cytotoxicity): > 20 µg/mL | inhibition at 20 µg/mL (M. tb H37Rv [3]; at 20 μg/mL, read-out: M. tb H37Rv: MIC-LORA: Comment (% inhibition)): 85% | MIC (M. tb H37Rv [3]): > 20 µg/mL | MIC (Mycobacterium abscessus; [6]): 64 µg/mL (≈ 188 µM)

C[Si]1(C)CCC(NC(=O)c2cc3c(Br)cc(C(F)(F)F)cc3[nH]2)CC1 [MPL-339, 4-bromo-N-(1,1-dimethylsilinan-4-yl)-6-(trifluoromethyl)-1H-indole-2-carboxamide]
MIC (M. tb H37Rv [2]): < 0.004 µg/mL | IC50 (VERO cell cytotoxicity): > 20 µg/mL | MIC (M. tb H37Rv [3]): > 20 µg/mL | MIC (Mycobacterium abscessus; [6]): > 64 µg/mL

COc1cc(F)cc2[nH]c(C(=O)NC3CC[Si](C)(C)CC3)cc12 [MPL-196, N-(1,1-dimethylsilinan-4-yl)-6-fluoro-4-methoxy-1H-indole-2-carboxamide]
MIC (M. tb H37Rv [2]): 0.0048 µg/mL (≈ 0.0144 µM) | IC50 (VERO cell cytotoxicity): > 32 µg/mL | MIC (M. tb H37Rv [3]): > 32 µg/mL | MIC (Mycobacterium abscessus; [6]): > 64 µg/mL

Cc1cc(C)c2cc(C(=O)NC3CCC[Si](C)(C)CCC3)[nH]c2c1 [MPL-303, N-(1,1-dimethylsilocan-5-yl)-4,6-dimethyl-1H-indole-2-carboxamide]
MIC (M. tb H37Rv [2]): < 0.004 µg/mL | IC50 (VERO cell cytotoxicity): > 20 µg/mL | MIC (M. tb H37Rv [3]): 4.23 µg/mL (≈ 12.3 µM) | MIC (Mycobacterium abscessus; [6]): 4 µg/mL (≈ 11.7 µM)
